The first assay deals with Primary human T-cells. Nature of the assay: Primary Human T-Cell Proliferation Assay Stimulated with IL-2 (CellTiter-Glo). Format: cell-based. Particulars: primary human T-cell proliferation stimulated with IL-2; read-out: IC50, Example 42. The essentials: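 Peripheral blood T-cells pre-activated with anti-CD3/anti-CD28 and IL-2 were washed free of IL-2, then cultured with compound plus IL-2 for 72 hours at 37° C, duplicate wells. Viability read as ATP by CellTiter-Glo luminescence; IC50 reported.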
A general note: In ATP-based viability assays light output follows the ATP content of the culture.
For orientation: IC50 means the point on the concentration scale where inhibition reaches its midpoint. Regarding “5-Fluoro-N4-[4-(3-methyl-1,2,4-oxadiazol-3-yl)methyleneoxyphenyl]-N2-[(3-N-propanamido)sulfonylphenyl)]-2,4-pyrimidinediamine [Compound I-262]”, the concentration for half-maximal inhibition (IC50) was 164 nM.
Regarding `Cc1ccc(Nc2ncc(F)c(Nc3ccc(OC4CCCN(C)C4)c(Cl)c3)n2)cc1S(N)(=O)=O` (racemic) [II-3, Racemic N2-(3-aminosulfonyl-4-methylphenyl)-N4-{3-chloro-4-[(1-methylpiperidin-3-yl)oxy]phenyl}-5-fluoro-2,4-pyrimidinediamine], the IC50 worked out at 918 nM.
On the same count and under the same terms, the figure for `N#CCOc1ccc(Nc2nc(Nc3cccc(S(N)(=O)=O)c3)ncc2F)cc1` [Compound I-17, N2-(3-Aminosulfonyl)phenyl-N4-(4-cyanomethoxy)phenyl-5-fluoro-2,4-pyrimidinediamine] is 43.2 nM; for `Cc1cc(COc2ccc(Nc3nc(Nc4ccc(F)c(S(N)(=O)=O)c4)ncc3F)cc2C)no1` [Compound I-237, N2-(3-Aminosulfonyl-4-fluorophenyl)-5-fluoro-N4-[3methyl-4-(5-methylisoxazol-3-yl)methyleneoxyphenyl]-2,4-pyrimidinediamine] it is 2040 nM; for `Cc1cc(COc2ccc(Nc3nc(Nc4cccc(S(N)(=O)=O)c4)ncc3F)cc2C)no1` [Compound I-238, N2-(3-Aminosulfonylphenyl)-5-fluoro-N4-[3-methyl-4-(5-methylisoxazol-3-yl)methyleneoxyphenyl]-2,4-pyrimidinediamine] it is 456 nM.
On to `CCN(CC)CCNS(=O)(=O)c1cccc(Nc2ncc(F)c(Nc3ccc(OCc4cc(C)on4)cc3)n2)c1` [Compound I-241, N2-[3-(2-N,N-Diethylaminoethyl)aminosulfonylphenyl)-5-fluoro-N4-[4-(5-methylisoxazol-3-yl)methyleneoxyphenyl]-2,4-pyrimidinediamine], for which the IC50 worked out at 442 nM.
On the same count and under the same terms, the figure for `Cc1cc(COc2ccc(Nc3nc(Nc4cccc(S(=O)(=O)N(Cc5oc(=O)oc5C)Cc5oc(=O)oc5C)c4)ncc3F)cc2)no1` [Compound I-248, N2-{3-[N-N-Di-[(5-Methyl-1,3-dioxolene-2-one-4-yl)methylene]]aminosulfonylphenyl}-5-fluoro-N4-[4-(5-methylisoxazol-3-yl)methyleneoxyphenyl]-2,4-pyrimidinediamine] is 138 nM; for `CCN(CC)CCNS(=O)(=O)c1ccc(Nc2ncc(F)c(Nc3cccc(OCc4nc(C)no4)c3)n2)cc1` [Compound I-256, N2-[4-(2-N,N-Diethylaminoethyl)aminosulfonylphenyl)-5-fluoro-N4-[3-(3-methyl-1,2,4-oxadiazol-5-yl)methyleneoxyphenyl]-2,4-pyrimidinediamine] it is 38200 nM.
For `Cc1noc(COc2ccc(Nc3nc(Nc4cccc(S(N)(=O)=O)c4)ncc3F)cc2)n1` [Compound I-258, N2-(3-Aminosulfonylphenyl)-5-fluoro-N4-[4-(3-methyl-1,2,4-oxadiazol-5-yl)methyleneoxyphenyl]-2,4-pyrimidinediamine], the concentration for half-maximal inhibition (IC50) came out at 55.4 nM.
As for `CCN(CC)CCNS(=O)(=O)c1ccc(Nc2ncc(F)c(Nc3ccc(OCc4nc(C)no4)cc3)n2)cc1` [Compound I-263, N2-[4-(2-N,N-Diethylaminoethyl)aminosulfonylphenyl)-5-fluoro-N4-[4-(3-methyl-1,2,4-oxadiazol-5-yl)methyleneoxyphenyl]-2,4-pyrimidinediamine], the IC50 was found to be 64.4 nM.
On the same count and under the same terms, the figure for `Cc1noc(COc2ccc(Nc3nc(Nc4ccc(F)c(S(N)(=O)=O)c4)ncc3F)cc2)n1` [Compound I-266, N2-(3-Aminosulfonyl-4-fluorophenyl)-5-fluoro-N4-[4-(3-methyl-1,2,4-oxadiazol-5-yl)methyleneoxyphenyl]-2,4-pyrimidinediamine] is 201 nM; for `Cc1noc(CCc2ccc(Nc3nc(Nc4ccc(F)c(S(N)(=O)=O)c4)ncc3F)cc2)n1` [Compound I-267, N2-(3-Aminosulfonyl-4-fluorophenyl)-5-fluoro-N4-[4-(3-methyl-1,2,4-oxadiazol-5-yl)ethylenephenyl]-2,4-pyrimidinediamine] it is 2020 nM.
As to `Cc1nc(COc2ccc(Nc3nc(Nc4ccc(S(N)(=O)=O)cc4)ncc3F)cc2)no1` [Compound I-275, N2-(4-Aminosulfonyl)phenyl-5-fluoro-N4-[4-(5-methyl-1,2,4-oxadiazol-3-yl)methoxy]phenyl-2,4-pyrimidinediamine], the IC50 is 577 nM.
Still for that read-out and setting: the figure for `Cc1nc(COc2ccc(Nc3nc(Nc4ccc(C)c(S(N)(=O)=O)c4)ncc3F)cc2)cs1` [Compound I-280, N2-(3-Aminosulfonyl-4-methylphenyl)-5-fluoro-N4-[4-(2-methylthiazol-4-yl)methyleneoxyphenyl]-2,4-pyrimidinediamine] is 978 nM; for `Cc1nc(COc2ccc(Nc3nc(Nc4cccc(S(N)(=O)=O)c4)ncc3F)cc2)cs1` [Compound I-281, N2-(3-Aminosulfonylphenyl)-5-fluoro-N4-[4-(2-methylthiazol-4-yl)methyleneoxyphenyl]-2,4-pyrimidinediamine] it is 90.4 nM; for `CNS(=O)(=O)c1cc(Nc2ncc(F)c(Nc3ccc(OCc4csc(C)n4)cc3)n2)ccc1C` [Compound I-282, 5-Fluoro-N2-[3-(N-methylaminosulfony)-4-methylphenyl]-N4-[4-(2-methylthiazol-4-yl)methyleneoxyphenyl]-2,4-pyrimidinediamine] it is 697 nM.
As for `CCN(CC)CCNS(=O)(=O)c1cccc(Nc2ncc(F)c(Nc3ccc(OCc4csc(C)n4)cc3)n2)c1` [Compound I-283, N2-[3-(2-N,N-Diethylaminoethyl)aminosulfonylphenyl)-5-fluoro-N4-[4-(2-methylthizol-4-yl)methyleneoxyphenyl]-2,4-pyrimidinediamine], the IC50 came to 362 nM.
The same measure, in the same setting: the figure for `CCN(CC)CCNS(=O)(=O)c1ccc(Nc2ncc(F)c(Nc3ccc(OCc4csc(C)n4)cc3)n2)cc1` [Compound I-284, N2-[4-(2-N,N-Diethylaminoethyl)aminosulfonylphenyl)-5-fluoro-N4-[4-(2-methylthizol-4-yl)methyleneoxyphenyl]-2,4-pyrimidinediamine] is 421 nM; for `Cc1nc(COc2ccc(Nc3nc(Nc4ccc(S(N)(=O)=O)cc4)ncc3F)cc2)cs1` [Compound I-285, N2-(4-Aminosulfonylphenyl)-5-fluoro-N4-[4-(2-methylthiazol-4-yl)methyleneoxyphenyl]-2,4-pyrimidinediamine] it is 314 nM.
Turning to `CN1CCC(Oc2ccc(Nc3nc(Nc4cccc(S(N)(=O)=O)c4)ncc3F)cc2)C1` (stereo not drawn) [II-9, N2-(3-Aminosulfonylphenyl)-5-fluoro-N4-(N-methylpyrrolidin-3-yloxyphenyl)-2,4-pyrimidinediamine], the IC50 worked out at 1320 nM.
Same read-out and setting: the figure for `Cc1ccc(Nc2ncc(F)c(Nc3ccc(OC4CCN(C)C4)cc3)n2)cc1S(N)(=O)=O` (stereo not drawn) [II-10, N2-(3-Aminosulfonyl-4-methylphenyl)-5-fluoro-N4-(N-methylpyrrolidin-3-yloxyphenyl)-2,4-pyrimidinediamine] is 876 nM.
Still for that read-out and setting: the figure for `CNS(=O)(=O)c1cc(Nc2ncc(F)c(Nc3ccc(CC#N)cc3)n2)ccc1C` [III-1, 5-Fluoro-N2-[3-(N-methylaminosulfony)-4-methylphenyl]-5-fluoro-N4-(4-cyanomethylphenyl)-2,4-pyrimidinediamine] is 545 nM; for `CCN(CC)CCNS(=O)(=O)c1ccc(Nc2ncc(F)c(Nc3ccc(CC#N)cc3)n2)cc1` [III-2, N2-[4-(2-N,N-Diethylaminoethyl)aminosulfonylphenyl)-5-fluoro-N4-(4-cyanomethylphenyl)-2,4-pyrimidinediamine] it is 3440 nM.
As for `N#CCc1ccc(Nc2nc(Nc3ccc(F)c(S(N)(=O)=O)c3)ncc2F)cc1` [III-10, N2-(3-Aminosulfonyl-4-fluoro)phenyl-N4-(4-cyanomethyl)phenyl-5-fluoro-2,4-pyrimidinediamine], the IC50 is 922 nM.
On the same count and under the same terms, the figure for `Cc1cnc(Nc2ccc(S(N)(=O)=O)cc2)nc1Nc1ccc(CCC#N)cc1` [III-27, N2-(4-Aminosulfonylphenyl)-N4-(4-cyanoethylenephenyl)-5-methyl-2,4-pyrimidinediamine] is 119 nM; for `N#CCCc1ccc(Nc2nc(Nc3cccc(S(N)(=O)=O)c3)ncc2F)cc1C(F)(F)F` [III-31, N4-(4-Cyanoethylene-3-trifluoromethylphenyl)-5-fluoro-N2-(3-aminosulfonylphenyl)-2,4-pyrimidinediamine] it is 328 nM.
With `Cc1ccc(Nc2ncc(F)c(Nc3cccc(CNC(=O)C4CC4)c3)n2)cc1S(N)(=O)=O` [III-40, N2-(3-aminosulfonyl-4-methyl)phenyl-N4-(3-cyclopropylcarbonylaminomethyl)phenyl-5-fluoro-2,4-pyrimidinediamine], the half-inhibitory concentration (IC50) was determined as 229 nM.
Same read-out and setting: the figure for `NS(=O)(=O)c1cccc(Nc2ncc(F)c(Nc3ccc(Cc4ccncc4)cc3)n2)c1` [III-70, N2-(3-Aminosulfonylphenyl)-5-fluoro-N4-[4-(4-pyridinylmethyl)phenyl]-2,4-pyrimidinediamine] is 169 nM; for “N2-(3-Aminocarbonyl-5-methylphenyl)-5-fluoro-N2-[4-(1-ethylpyrazol-5-yl)amidophenyl)-2,4-pyrimidinediamine [II-20]” it is 969 nM; for “N2-(3-Aminocarbonyl-5-methylphenyl)-5-fluoro-N2-[4-(1-methylpyrazol-5-yl)amidophenyl)-2,4-pyrimidinediamine [II-21]” it is 1760 nM.

A further assay relates to up-regulation of ICAM-1 (CD54) by IFNγ in A549 lung epithelial cells. Nature of the assay: A549 Epithelial Line Stimulated with IFNγ (ICAM-1 surface expression, FACS). It counts as cell-based, human. Particulars: A549 epithelial line stimulated with IFNγ; ICAM-1 expression by FACS; read-out: IC50, Example 43. An outline of the steps: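 A549 cells pre-incubated 1 h with compound (30 μM to 14 nM, 5% FBS, 0.3% DMSO), then stimulated with IFNγ (75 ng/mL) for 24 h. Surface ICAM-1 stained with APC anti-CD54 and read by flow cytometry; geometric mean of live-gated events plotted against concentration for EC50.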
(In general: In flow cytometry, cells or beads pass a laser one at a time.)
Consider “5-Fluoro-N4-[4-(3-methyl-1,2,4-oxadiazol-3-yl)methyleneoxyphenyl]-N2-[(3-N-propanamido)sulfonylphenyl)]-2,4-pyrimidinediamine [Compound I-262]”, for which the IC50 was determined as 3680 nM.
Same read-out and setting: the figure for `Cc1ccc(Nc2ncc(F)c(Nc3ccc(OC4CCCN(C)C4)c(Cl)c3)n2)cc1S(N)(=O)=O` (racemic) [II-3, Racemic N2-(3-aminosulfonyl-4-methylphenyl)-N4-{3-chloro-4-[(1-methylpiperidin-3-yl)oxy]phenyl}-5-fluoro-2,4-pyrimidinediamine] is 11900 nM; for `N#CCOc1ccc(Nc2nc(Nc3cccc(S(N)(=O)=O)c3)ncc2F)cc1` [Compound I-17, N2-(3-Aminosulfonyl)phenyl-N4-(4-cyanomethoxy)phenyl-5-fluoro-2,4-pyrimidinediamine] it is 2350 nM.
